For series [1] the following is noted: cited from earlier work.
Series [2] has as its system bovine serum albumin (BSA). As to conditions: cited from earlier work.
Series [3] can be described thus: Solubility in water or ethanol by the conductivity method. To be noted: 25 °C.
Series [4] in a line: Critical micelle concentration from conductivity measurements. As to conditions: 25 °C. In kind it is physicochemical.
A further series concerns L929 cells. The series can be described thus: Cytotoxicity, MTT assay. Type of series: cell-based. As to conditions: read-out: IC50 (best-fit), 48 h (method b31 says 24 h).
Series [5] is described as follows: Thermogravimetric analysis. To be noted: TGA, nitrogen, 10 °C·min^–1. Type of series: physicochemical.
Series [6] in a line: Pharmacokinetic experiments in mice. Type of series: in vivo. As to conditions: printed as 'higher than that of naproxen'.
For series [7] the following is noted: cited from earlier work. This is another data set of the same source.

In the case of `CC(C)OC(=O)[C@@H]1CCCN1.COc1ccc2cc([C@H](C)C(=O)O)ccc2c1` [L-proline isopropyl ester naproxen], the “increase of permeation of naproxen through the skin” value in series [1] is recorded as “almost four times”.

In the case of `CC(C)OC(=O)[C@@H](N)C(C)C.COc1ccc2cc([C@H](C)C(=O)O)ccc2c1` [L-valine isopropyl ester naproxen], the “binding affinity for BSA relative to parent naproxen” value in series [2] is listed as “about 1 order of magnitude lower”.

Regarding `CCCCCCCCCCCCCC[N+](C)(C)Cc1ccccc1.COc1ccc2cc([C@H](C)C(=O)[O-])ccc2c1` [[Ben][Nap], tetradecyldimethylbenzyl ammonium naproxen], the results for the “mass of solute per 100 g of solvent” value in series [3] (ethanol) and in series [3] (water) were 97.61 g·100 g^–1 and 61.6251 g·100 g^–1, respectively. Also, the critical micelle concentration in series [4] (ethanol) is reported as 6.25 × 10^–6 mol·L^–1; in series [4] (water), 3.05 × 10^–5 mol·L^–1. The IC50 (as a rule, the concentration needed to halve the response being measured) with L929 cells stood at 111 µM. Besides, the “beginning weight loss temperature” value in series [5] worked out at 147.05 °C.

With `COc1ccc2cc(C(C)C(=O)[O-])ccc2c1.C[N+](C)(C)CCO` (stereo not shown) [[Ch][Nap], choline naproxen], the “mass of solute per 100 g of solvent” value was determined as 70.23 g·100 g^–1 in series [3] (ethanol) and 124.51 g·100 g^–1 in series [3] (water). In series [6], this molecule came in with a cmax of 23.051 mg·L^–1. Further, the critical micelle concentration in series [4] (ethanol) is 3.48 × 10^–6 mol·L^–1; in series [4] (water), 3.75 × 10^–5 mol·L^–1. Also, the IC50 in the series with L929 cells was 783 µM. Besides, the “beginning weight loss temperature” value in series [5] is 171.93 °C.

In the case of `CCCCCCCCn1cc[n+](C)c1.COc1ccc2cc(C(C)C(=O)[O-])ccc2c1` (stereo not shown) [[Omim][Nap], 1-octyl-3-methylimidazole naproxen], the “mass of solute per 100 g of solvent” value in series [3] (ethanol) worked out at 82.00 g·100 g^–1; in series [3] (water), 112.56 g·100 g^–1. Further, the critical micelle concentration in series [4] (ethanol) is listed as 4.89 × 10^–6 mol·L^–1; in series [4] (water), 5.68 × 10^–5 mol·L^–1. Further, the IC50 in the series on L929 cells was determined as 174 µM. The “beginning weight loss temperature” value in series [5] came to 218.79 °C.

In the case of `CCCC[P+](CCCC)(CCCC)CCCC.COc1ccc2cc(C(C)C(=O)[O-])ccc2c1` [[Tbp][Nap], tetrabutyl phosphonium naproxen], the “improvement of dissolution rates compared with the original naproxen” value in series [7] is “up to 1000 times”.

Source of the values: publication PMC9996794 (ACS Omega, 2023).
